Experiments:
a species of yeast = conditions: Korytnyk and Fricke, J. Med. Chem. 11, 180-181 (1968); cited from earlier work
hydroxylase = target: T1, hydroxylase (Homo sapiens, UniProt P05093); assay: biochemical
T1 sequence (P05093 1-508): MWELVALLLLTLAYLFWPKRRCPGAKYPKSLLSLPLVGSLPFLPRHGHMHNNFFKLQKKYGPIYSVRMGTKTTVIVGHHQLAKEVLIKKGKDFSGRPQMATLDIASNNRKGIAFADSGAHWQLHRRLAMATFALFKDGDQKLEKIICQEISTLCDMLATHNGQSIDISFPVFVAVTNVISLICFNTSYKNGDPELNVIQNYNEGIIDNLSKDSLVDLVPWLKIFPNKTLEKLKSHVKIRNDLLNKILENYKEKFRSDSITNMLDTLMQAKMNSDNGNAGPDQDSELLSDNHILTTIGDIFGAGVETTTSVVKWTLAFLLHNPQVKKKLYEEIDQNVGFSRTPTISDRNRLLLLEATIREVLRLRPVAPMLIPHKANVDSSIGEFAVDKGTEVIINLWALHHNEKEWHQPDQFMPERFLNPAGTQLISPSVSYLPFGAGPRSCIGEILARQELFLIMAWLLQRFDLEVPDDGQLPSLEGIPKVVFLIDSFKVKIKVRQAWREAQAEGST
Method: (§1) In the hydroxylase assay, the "Nucleosil" pre-column for separation of steroids was also "C18". In the lyase assay, the reaction was stopped after 1/2 hour. […] The enzyme activity was measured from 3 (not 4) concentrations of compound.

lyase = target: T2, lyase (Homo sapiens, UniProt P05093); assay: biochemical
T2 sequence (P05093 1-508): T1 sequence (P05093 1-508)
Method: as §1

aromatase = target: T3, aromatase (Homo sapiens, UniProt P11511); assay: biochemical
T3 sequence (P11511 1-503): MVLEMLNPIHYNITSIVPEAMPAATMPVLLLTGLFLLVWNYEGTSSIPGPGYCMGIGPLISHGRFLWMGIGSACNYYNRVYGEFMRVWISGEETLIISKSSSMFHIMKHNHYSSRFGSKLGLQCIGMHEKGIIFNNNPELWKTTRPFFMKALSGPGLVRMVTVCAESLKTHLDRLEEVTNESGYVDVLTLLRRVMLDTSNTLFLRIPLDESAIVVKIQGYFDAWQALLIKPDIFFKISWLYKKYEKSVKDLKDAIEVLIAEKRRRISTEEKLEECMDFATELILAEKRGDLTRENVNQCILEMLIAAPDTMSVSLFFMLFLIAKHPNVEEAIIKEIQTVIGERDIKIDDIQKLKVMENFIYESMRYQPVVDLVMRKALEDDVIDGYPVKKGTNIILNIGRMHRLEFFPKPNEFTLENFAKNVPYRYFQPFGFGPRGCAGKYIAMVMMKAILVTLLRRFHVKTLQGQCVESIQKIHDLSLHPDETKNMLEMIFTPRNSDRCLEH

[1] = target: T4, 17α-hydroxylase/C17-20 lyase enzyme complex (Homo sapiens, UniProt P05093); assay: hydroxylase/lyase inhibition, general statements on potency; format: biochemical; conditions: of the order of; greater than the less good compounds of formula (3)
T4 construct: for hydroxylase determinations, the microsomal preparation, prepared according to S. E. Bartie et al; from tissue
T4 sequence (P05093 1-508): T1 sequence (P05093 1-508)
Method: as §1

[2] = system: acute toxicity in mice of 4-vinylpyridine; conditions: J. Med. Chem. 16, 865-867 (1973); cited from earlier work
[3] = resistance of the esters to hydrolytic cleavage (method of R. McCague et al., 1990); conditions: compared with the other esters of Examples 1-8

Row | IC50 (hydroxylase) [µM] | IC50 (lyase) [µM] | IC50 (aromatase) [µM] | Compound | further results
1 | – | – | – | Cc1c(COC(=O)C23CC4CC(CC(C4)C2)C3)cc(CO)nc1O | growth inhibition of yeast (a species of yeast): weak growth inhibitors of a species of yeast
2 | 1.3 | 0.5 | 1.4 | CC(CC(=O)C12CC3CC(CC(C3)C1)C2)c1cccnc1 (racemic) [Example 10, (±)-1-(1-Adamantyl)-3-(3-pyridyl)butan-1-one] | –
3 | 2.2 | 0.45 | 3.4 | O=C(CCc1cccnc1)C12CC3CC(CC(C3)C1)C2 [Example 9, 1-(1-Adamantyl)-3-(3-pyridyl)propan-1-one] | –
4 | – | – | – | Cc1c(COC(=O)C23CC4CC(CC(C4)C2)C3)cnc(CO)c1O | reversal of the acute toxicity of 4-vinylpyridine [2]: reverse the acute toxicity in mice of 4-vinylpyridine; growth inhibition of yeast (a species of yeast): weak growth inhibitors of a species of yeast
5 | 1 | 0.7 | 2.7 | CC(Cc1cccnc1)C(=O)C12CC3CC(CC(C3)C1)C2 (racemic) [Example 11, (±)-1-(1-Adamantyl)-2-methyl-3-(3-pyridyl)propan-1-one] | –
6 | – | – | – | CC(C)(OC(=O)C12CC3CC(CC(C3)C1)C2)c1ccncc1 [Example 4, 2-(4-Pyridyl)propan-2-yl 1-adamantanecarboxylate] | resistance to hydrolytic cleavage [3]: considerably more resistant to cleavage than the other esters
7 | – | – | – | CC(C)(OC(=O)C12CC3CC(CC(C3)C1)C2)c1cccnc1 [Example 8, 2-(3-Pyridyl)propan-2-yl 1-adamantanecarboxylate] | resistance to hydrolytic cleavage [3]: considerably more resistant to cleavage than the other esters

Row | Compound | IC50 (hydroxylase) [µM] | IC50 (lyase) [µM] | IC50 (aromatase) [µM] | further results
8 | O=C(NCc1ccncc1)C1CCCCC1 [Cy NH H H 4, reference compound] | 40 | 10 | – | IC50 against lyase and hydroxylase relative to the less good compounds of formula (3) [1]: ~20 ×

From patent US5595995A, “Pyridyl-propan-2-yl esters of 1-adamantane carboxylates” (priority 1992, dated 1997)
